Experiments:
recombinant human ALDH-2 = biological target: T1, recombinant human ALDH-2 (Homo sapiens, UniProt P05091); experiment: ALDH-2 inhibition assay; assay type: biochemical; conditions: 60 min pre-incubation; 10 μM = highest concentration tested; read-out: Enzymatic Assays IC50 ALDH2
T1 sequence (P05091 18-517): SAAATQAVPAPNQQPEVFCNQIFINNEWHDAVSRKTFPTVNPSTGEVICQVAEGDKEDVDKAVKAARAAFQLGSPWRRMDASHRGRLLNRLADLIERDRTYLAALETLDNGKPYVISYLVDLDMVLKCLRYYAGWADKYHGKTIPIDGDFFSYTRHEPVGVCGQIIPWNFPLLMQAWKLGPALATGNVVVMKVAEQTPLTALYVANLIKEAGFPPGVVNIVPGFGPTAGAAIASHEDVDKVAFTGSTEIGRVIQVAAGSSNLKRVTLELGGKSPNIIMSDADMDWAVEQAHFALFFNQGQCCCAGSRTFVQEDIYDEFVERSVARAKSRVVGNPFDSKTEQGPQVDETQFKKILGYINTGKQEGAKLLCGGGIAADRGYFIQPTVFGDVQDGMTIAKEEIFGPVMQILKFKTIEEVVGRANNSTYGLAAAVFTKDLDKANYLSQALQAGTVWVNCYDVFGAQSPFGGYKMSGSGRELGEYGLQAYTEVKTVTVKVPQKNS
Description: A. ALDH-2 inhibition assay: The ALDH-2 reaction mixture used in the assay contained 125 μM formaldehyde, 75 μM NAD+, 20 mM NaCl, 10 mM MgCl2, and 20 nM recombinant human ALDH-2 in 50 mM Hepes buffer, pH 7.5 in a final volume of 10 μL using 384-well Corning 3820 plates. After 60 min of pre-incubation of the test ALDH-2 inhibitor compound with ALDH-2, the reaction was started by adding NAD+ and formaldehyde and the assay reaction mixture was allowed to proceed for 60 minutes. Activity of the ALDH-2 enzyme was determined by monitoring NADH formation using Perkin-Elmer Envision Reader with excitation and emission wavelengths set at 340 and 460 nm, respectively.

MAO-A = biological target: T2, MAO-A (Homo sapiens, UniProt P21397); experiment: MAO-A inhibition assay (luminogenic substrate); assay type: biochemical; conditions: 20 min pre-incubation; 10 μM = highest concentration tested; read-out: Enzymatic Assays IC50 MAO-A
T2 sequence (P21397 1-527): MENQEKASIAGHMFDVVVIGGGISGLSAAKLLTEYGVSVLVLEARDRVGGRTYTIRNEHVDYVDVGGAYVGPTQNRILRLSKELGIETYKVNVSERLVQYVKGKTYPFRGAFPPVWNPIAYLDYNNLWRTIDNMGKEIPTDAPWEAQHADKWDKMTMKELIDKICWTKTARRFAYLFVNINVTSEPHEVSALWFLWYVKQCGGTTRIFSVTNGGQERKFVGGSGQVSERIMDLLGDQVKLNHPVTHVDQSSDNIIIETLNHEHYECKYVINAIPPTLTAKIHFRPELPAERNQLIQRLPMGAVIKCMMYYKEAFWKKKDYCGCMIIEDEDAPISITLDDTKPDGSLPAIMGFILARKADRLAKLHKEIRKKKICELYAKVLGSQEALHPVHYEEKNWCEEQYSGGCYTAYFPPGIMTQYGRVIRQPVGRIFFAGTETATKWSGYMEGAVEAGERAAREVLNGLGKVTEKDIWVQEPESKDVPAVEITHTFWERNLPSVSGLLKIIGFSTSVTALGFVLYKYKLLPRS
Description: (§1) D. MAO-A and MAO-B inhibition assays: MAO assays included luminogenic MAO substrate, reaction buffers, Luciferin Detection, and a reconstitution buffer with esterase. The MAO reaction mixture used in the assay included microsome contained MAO-A (2 μg) or MAO-B (10 μg), 160 μM substrate for MAO-A or 16 μM substrate for MAO-B, MAO-A buffer (100 mM Hepes buffer, pH 7.5, 5% glycerol) or MAO-B buffer (100 mM Hepes, pH 7.5, 5% glycerol, 10% dimethyl sulfoxide) in a final volume of 30 μL. After 20 minutes of pre-incubation of the MAO-A or MAO-B enzyme with the test ALDH-2 inhibitor compound, the reaction was initiated by adding enzyme substrate and the […] reaction was allowed to proceed for 60 minutes. Reconstituted Luciferin Detection Reagent (30 μL) was then added is added to simultaneously stop the MAO reaction and convert the methyl ester derivative to luciferin and produce light. The amount of light produced is directly proportional to the activity of MAO. The mixtures were further incubated for 20 minutes and activity of the enzyme was determined using Perkin-Elmer Envision Reader.

recombinant human ALDH-1 = biological target: T3, recombinant human ALDH-1 (Homo sapiens, UniProt P00352); experiment: ALDH-1 inhibition assay; assay type: biochemical; conditions: 60 min pre-incubation; 10 μM = highest concentration tested; read-out: Enzymatic Assays IC50 ALDH1
T3 sequence (P00352 1-501): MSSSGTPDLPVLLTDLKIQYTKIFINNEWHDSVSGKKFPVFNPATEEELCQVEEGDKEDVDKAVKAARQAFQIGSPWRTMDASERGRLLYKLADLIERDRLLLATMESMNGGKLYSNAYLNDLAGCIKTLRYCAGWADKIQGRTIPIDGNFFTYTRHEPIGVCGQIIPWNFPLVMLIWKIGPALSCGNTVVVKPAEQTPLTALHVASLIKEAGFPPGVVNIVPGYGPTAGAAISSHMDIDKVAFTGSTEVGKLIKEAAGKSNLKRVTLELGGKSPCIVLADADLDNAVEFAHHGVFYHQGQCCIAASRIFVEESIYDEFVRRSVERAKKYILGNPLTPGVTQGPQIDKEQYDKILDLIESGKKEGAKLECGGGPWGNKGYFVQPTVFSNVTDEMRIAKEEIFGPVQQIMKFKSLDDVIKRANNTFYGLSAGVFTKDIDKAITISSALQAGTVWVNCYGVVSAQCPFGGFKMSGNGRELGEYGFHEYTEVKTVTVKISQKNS
Description: B. ALDH-1 inhibition assay: The ALDH-1 reaction mixture used in the assay contained 100 μM formaldehyde, 2.5 mM NAD+, 20 mM NaCl, 10 mM MgCl2, 1 mM dithiothreitol (DTT; reducing agent), and 50 nM recombinant human ALDH-1 in 50 mM Hepes buffer, pH 7.5 in a final volume of 10 μL using 384-well Corning 3820 plates. After 60 min of pre-incubation of the test ALDH-2 inhibitor compound with ALDH-1, the reaction was started by adding NAD+ and formaldehyde and the assay reaction mixture was allowed to proceed for 60 minutes. Activity of the ALDH-1 enzyme was determined by monitoring NADH formation using Perkin-Elmer Envision Reader with excitation and emission wavelengths set at 340 and 460 nm, respectively.

MAO-B = biological target: T4, MAO-B (Homo sapiens, UniProt P27338); experiment: MAO-B inhibition assay (luminogenic substrate); assay type: biochemical; conditions: 20 min pre-incubation; 10 μM = highest concentration tested; read-out: Enzymatic Assays IC50 MAO-B
T4 sequence (P27338 1-520): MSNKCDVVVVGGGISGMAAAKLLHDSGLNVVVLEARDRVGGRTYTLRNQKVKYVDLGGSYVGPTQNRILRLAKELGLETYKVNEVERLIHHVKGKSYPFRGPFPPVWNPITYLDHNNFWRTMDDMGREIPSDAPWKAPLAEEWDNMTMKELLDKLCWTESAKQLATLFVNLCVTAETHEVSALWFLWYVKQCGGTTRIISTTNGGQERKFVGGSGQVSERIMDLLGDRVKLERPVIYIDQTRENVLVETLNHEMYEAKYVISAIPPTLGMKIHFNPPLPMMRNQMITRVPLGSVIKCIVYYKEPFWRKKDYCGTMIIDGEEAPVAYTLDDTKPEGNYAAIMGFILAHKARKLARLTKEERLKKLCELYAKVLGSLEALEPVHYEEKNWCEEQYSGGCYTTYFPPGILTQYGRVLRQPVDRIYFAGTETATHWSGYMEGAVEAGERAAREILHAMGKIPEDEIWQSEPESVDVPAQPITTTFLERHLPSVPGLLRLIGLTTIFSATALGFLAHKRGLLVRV
Description: as §1

HepaRG spheroids = experiment: HepaRG 3D spheroid assay (hepatotoxic liability); assay type: cell-based; conditions: minimum effective concentration crossing vehicle control threshold of cell health marker; dosed days 1, 4, 7, 10, 13; 100 μM = highest concentration tested
From the text: See e.g., Walker et al., “The evolution of strategies to minimise the risk of human drug-induced liver injury (DILI) in drug discovery and development,” (2020) Archives of Toxicology, Vol. 94: 2559-2585, which is hereby incorporated by reference herein in its entirety. […] In applying the HepaRG spheroid assay analysis to determining the hepatoxic liability of ALDH-2 inhibitor compounds, consideration is made of the binding to plasma protein and the limitations to CNS penetration due to the blood-brain barrier.
E. HepaRG® 3D spheroid assay: The HepaRG 3D spheroid assay is described in Walker et al., “The evolution of strategies to minimise the risk of human drug-induced liver injury (DILI) in drug discovery and development,” (2020) Archives of Toxicology, Vol. 94: 2559-2585. Briefly, HepaRG® cells were seeded into ultra-low adhesion 96-well black walled clear bottomed spheroid microplates. […] At the end of the incubation period, the spheroids were loaded with the relevant dye/antibody for each cell health marker (spheroid count, spheroid size, DNA structure, mitochondrial mass, mitochondrial membrane potential, oxidative stress, glutathione content, and cellular ATP). The plates were then scanned using an automated fluorescent cellular imager, ArrayScan® (Thermo Scientific Cellomics).

IC50 (recombinant human ALDH-2) [µM]	IC50 (MAO-A) [µM]	IC50 (recombinant human ALDH-1) [µM]	IC50 (MAO-B) [µM]	Compound	HepaRG 3D Spheroid MEC (HepaRG spheroids)
0.035	> 10	> 10	> 10	Cc1nccc(Cl)c1C(=O)NCc1ccc(N2CCNC(=O)C2)nc1 [(1c), 4-Chloro-2-methyl-N-((6-(3-oxopiperazin-1-yl)pyridin-3-yl)methyl)nicotinamide]	No Effect
0.012	> 10	> 10	> 10	Cc1cccc(Cl)c1C(=O)NCc1ccc(N2CCNC(=O)C2)nc1 [(1a), 2-chloro-6-methyl-N-((6-(3-oxopiperazin-1-yl)pyridin-3-yl)methyl)benzamide]	54.1 µM
0.008	> 10	> 10	> 10	O=C1CN(c2ccc(CNC(=O)c3c(Cl)cccc3Cl)cn2)CCN1 [(1d), 2,6-Dichloro-N-((6-(3-oxopiperazin-1-yl)pyridin-3-yl)methyl)benzamide]	29.4 µM
0.058	> 10	> 10	> 10	O=C1CN(c2ccc(CNC(=O)c3ccccc3Cl)cn2)CCN1 [(1b), 2-Chloro-N-((6-(3-oxopiperazin-1-yl)pyridin-3-yl)methyl)benzamide]	No Effect
